Data set [1] is described as follows: (§1) Apparent permeability across basal to apical side of Sprague-Dawley Rattus norvegicus (rat) everted ileum sac at 1 mg/ml by HPLC method. The conditions noted are these: Sprague-Dawley. Type of data set: ADME, tissue-based.
The nature of data set [2]: (§2) Apparent permeability across basal to apical side of Sprague-Dawley Rattus norvegicus (rat) everted jejunum sac at 1 mg/ml by HPLC method. Particulars: Sprague-Dawley. Format: ADME, tissue-based.
Data set [3] can be described thus: (§3) Apparent permeability across basal to apical side of Sprague-Dawley Rattus norvegicus (rat) everted duodenum sac at 1 mg/ml by HPLC method. Type of data set: ADME. The conditions noted are these: Sprague-Dawley.
The nature of data set [4]: (§4) Apparent permeability across apical to basal side of Sprague-Dawley Rattus norvegicus (rat) normal ileum sac at 1 mg/ml by HPLC method. Particulars: Sprague-Dawley. Format: ADME, tissue-based.
Data set [5] is described as follows: (§5) Apparent permeability across apical to basal side of Sprague-Dawley Rattus norvegicus (rat) normal jejunum sac at 1 mg/ml by HPLC method. Type of data set: ADME, tissue-based. Particulars: Sprague-Dawley.
Data set [6] can be described thus: (§6) Apparent permeability across apical to basal side of Sprague-Dawley Rattus norvegicus (rat) normal duodenum sac at 1 mg/ml by HPLC method. Type of data set: ADME. Particulars: Sprague-Dawley.
Data set [7] can be described thus: (§7) Efflux Rattus norvegicus (rat)io of apparent permeability from basal to apical side over apical to basal side of Sprague-Dawley Rattus norvegicus (rat) ileum sac at 1 mg/ml by HPLC method. Type of data set: ADME, tissue-based. Particulars: Sprague-Dawley.
A short description of data set [8]: (§8) Efflux Rattus norvegicus (rat)io of apparent permeability from basal to apical side over apical to basal side of Sprague-Dawley Rattus norvegicus (rat) jejunum sac at 1 mg/ml by HPLC method. Type of data set: ADME, tissue-based. Particulars: Sprague-Dawley.
A short description of data set [9]: (§9) Efflux Rattus norvegicus (rat)io of apparent permeability from basal to apical side over apical to basal side of Sprague-Dawley Rattus norvegicus (rat) duodenum sac at 1 mg/ml by HPLC method. Format: ADME. The conditions noted are these: Sprague-Dawley.
For data set [10], the system named is Ileum. Described as §1. Type of data set: ADME, tissue-based.
Data set [11] relates to Jejunum. The description is as §2. Format: ADME, tissue-based.
Data set [12] relates to Duodenum. Described as §3. Type of data set: ADME.
Data set [13] deals with Ileum. Described as §4. Type of data set: ADME, tissue-based.
Data set [14] relates to Jejunum. The data set is described as §5. Type of data set: ADME, tissue-based.
Data set [15] concerns Duodenum. The data set is described as §6. Type of data set: ADME.
Data set [16] deals with Ileum. The data set is described as §7. Type of data set: ADME, tissue-based.
For data set [17], the system named is Jejunum. The data set is described as §8. Type of data set: ADME, tissue-based.
Data set [18] concerns Duodenum. The data set is described as §9. Type of data set: ADME.
Data set [19] can be described thus: Efflux Rattus norvegicus (rat)io of apparent permeability from basal to apical side over apical to basal side of Sprague-Dawley Rattus norvegicus (rat) duodenum sac at 500 ug/ml by HPLC method. Type of data set: ADME.
A short description of data set [20]: Apparent permeability across basal to apical side of Sprague-Dawley Rattus norvegicus (rat) everted ileum sac at 500 ug/ml by HPLC method. Type of data set: ADME, tissue-based.
Data set [21] is described as follows: Apparent permeability across basal to apical side of Sprague-Dawley Rattus norvegicus (rat) everted jejunum sac at 500 ug/ml by HPLC method. Type of data set: ADME, tissue-based.
Data set [22] is described as follows: Apparent permeability across basal to apical side of Sprague-Dawley Rattus norvegicus (rat) everted duodenum sac at 500 ug/ml by HPLC method. Format: ADME.
Data set [23] in a line: Apparent permeability across apical to basal side of Sprague-Dawley Rattus norvegicus (rat) normal ileum sac at 500 ug/ml by HPLC method. Type of data set: ADME, tissue-based.
A short description of data set [24]: Apparent permeability across apical to basal side of Sprague-Dawley Rattus norvegicus (rat) normal jejunum sac at 500 ug/ml by HPLC method. Format: ADME, tissue-based.
Data set [25] in a line: Apparent permeability across apical to basal side of Sprague-Dawley Rattus norvegicus (rat) normal duodenum sac at 500 ug/ml by HPLC method. Format: ADME.
Data set [26] in a line: Efflux Rattus norvegicus (rat)io of apparent permeability from basal to apical side over apical to basal side of Sprague-Dawley Rattus norvegicus (rat) […] sac at 500 ug/ml by HPLC method. Type of data set: ADME, tissue-based, Ileum.
Data set [27] can be described thus: Efflux Rattus norvegicus (rat)io of apparent permeability from basal to apical side over apical to basal side of Sprague-Dawley Rattus norvegicus (rat) jejunum sac at 500 ug/ml by HPLC method. Type of data set: ADME, tissue-based.
Data set [28] is described as follows: Oral bioavailability in Homo sapiens (human). Particulars: in vivo. Type of data set: ADME, organism-based.
A short description of data set [29]: Elimination half life in Homo sapiens (human). Particulars: in vivo, read-out: beta t1/2 (converted). Format: ADME, organism-based.
A short description of data set [30]: Dissociation constant, pKa of the compound. Format: physicochemical.
The nature of data set [31]: Tmax in Homo sapiens (human). Type of data set: ADME, organism-based. Particulars: in vivo.

Usually Papp B→A stands for the apparent permeability from the basolateral to the apical side of a cell layer. The Papp A→B is the apparent permeability from the apical to the basolateral side of a cell layer. By efflux ratio is commonly meant a quotient of directional permeabilities that is used to spot active efflux. `CC(C)[C@H]1CC[C@H](C(=O)N[C@H](Cc2ccccc2)C(=O)O)CC1` (racemic; form 1) [NATEGLINIDE]: the figures for the basolateral-to-apical permeability (Papp B→A) at 1 mg/ml in data set [1], in data set [2] and in [3] were 590 ×10⁻⁶ cm/s, 340 ×10⁻⁶ cm/s and 350 ×10⁻⁶ cm/s, respectively. For the same compound, the apparent permeability from apical to basolateral (Papp A→B) at 1 mg/ml in data set [4] amounted to 190 ×10⁻⁶ cm/s; in data set [5], 230 ×10⁻⁶ cm/s; in [6] it was 260 ×10⁻⁶ cm/s. Also, the efflux ratio at 1 mg/ml in data set [7] was 3.1; in data set [8], 1.4; in data set [9], 1.3.

As to `CC(C)[C@H]1CC[C@H](C(=O)N[C@H](Cc2ccccc2)C(=O)O)CC1` (racemic; form 2) [NATEGLINIDE], the Papp in the data set with Ileum [10] is given as 3.6 ×10⁻⁴ cm/s; in the data set on Jejunum [11] it was 3.6 ×10⁻⁴ cm/s; in the data set on Duodenum [12], 3.4 ×10⁻⁴ cm/s; with Ileum [13] it was 1.3 ×10⁻⁴ cm/s; in the data set on Jejunum [14], 2.2 ×10⁻⁴ cm/s; in the data set on Duodenum [15], 2.4 ×10⁻⁴ cm/s. The Ratio in the data set with Ileum [16] turned out to be 3.5; in the data set on Jejunum [17], 1.5; with Duodenum [18], 1.4.

In the case of `CC(C)[C@H]1CC[C@H](C(=O)N[C@@H](Cc2ccccc2)C(=O)O)CC1` [(S)-NATEGLINIDE], the efflux ratio at 500 ug/ml is 1.4 in [19], 3.8 in data set [26] and 1.7 in [27]. Further, the apparent permeability from basolateral to apical (Papp B→A) at 500 ug/ml amounted to 380 ×10⁻⁶ cm/s in data set [20], 220 ×10⁻⁶ cm/s in data set [21] and 210 ×10⁻⁶ cm/s in data set [22]. In addition, the apical-to-basolateral permeability (Papp A→B) at 500 ug/ml in data set [23] was 100 ×10⁻⁶ cm/s; in data set [24], 130 ×10⁻⁶ cm/s; in data set [25] it was 140 ×10⁻⁶ cm/s.

The term bioavailability denotes the share of a dose that reaches the circulation, judged against a reference dose that is usually intravenous. The low end stands for little systemic uptake, the high end for much systemic uptake. What is called pKa is the pH at which an ionisable group is half protonated. The term Tmax denotes the time at which the peak concentration occurs. Take `CC(C)[C@H]1CC[C@H](C(=O)N[C@H](Cc2ccccc2)C(=O)O)CC1` [NATEGLINIDE]: the bioavailability in data set [28] is 70%. For the same compound, the efflux ratio at 500 ug/ml in data set [19] turned out to be 1.6; in data set [26], 4.8; in data set [27] it was 2. Further, the Papp B→A at 500 ug/ml is 440 ×10⁻⁶ cm/s in data set [20], 240 ×10⁻⁶ cm/s in data set [21] and 250 ×10⁻⁶ cm/s in [22]. Further, the Papp A→B at 500 ug/ml in data set [23] worked out at 90 ×10⁻⁶ cm/s; in data set [24] it was 120 ×10⁻⁶ cm/s; in data set [25], 150 ×10⁻⁶ cm/s. Moreover, in data set [29], the half-life is 84 min. Also, the pKa in [30] was determined as 3.1. Also, in data set [31], the Tmax was 30 min.
